Entries after “also recorded” stand apart in the source; their conditions may differ.
Tests used:
[1] = tested on: CRC cells (HT29, HCT116 and DLD1); test: MTT cell viability assay in CRC cell lines; assay type: cell-based
Experimental: The PRMT5 inhibitory activity of the compounds from the screen was confirmed using both AlphaLISA and an MTT [(3-(4,5-dimethylthiazolyl-2)-2,5-diphenyltetrazolium bromide)] assay (PerkinElmer, Waltham, MA). For the MTT assay, cells were seeded at 90% confluence in 96-well plates and titrated with different dosages of compound (IIa) for 4 days. Media was then removed and 100 μl of MTT (Sigma-Aldrich, St. Louis, MO) was added per well. Cells were incubated for 2 hours at 37° C. before adding 100 μl of DMSO to each well and quantified with the SYNERGY™ H1 Multi-Mode Reader (BioTek Instruments Inc., Winooski, VT). The expression of PRMT5 was examined in pancreatic ductal adenocarcinoma cells at multiple stages of disease progression and in multiple colorectal cancer cell lines. Pancreatic control (HPNE) and cancer cell lines (PANC1, MiaPaCa2 and AsPC1) were grown in Dulbecco's Modified Eagle Medium (DMEM) (GE Healthcare, Little Chalfont, UK), supplemented with 1% of penicillin/streptomycin, 10% fetal bovine serum (FBS). Colon control (FHC) and cancer (HT29, HCT116, and DLD1) cell lines were maintained in RPMI 1640 Medium (Roswell Park Memorial Institute Medium) (GE Healthcare, Little Chalfont, UK), containing 1% penicillin/streptomycin and 10% FBS, while FHC cells were cultured under the same condition with further addition of 25 mM HEPES (4-(2-hydroxyethyl)-1-piperazineethanesulfonic acid), 10 ng/ml cholera toxin, 0.005 mg/ml insulin, 0.005 mg/ml transferring, and 100 ng/ml hydrocortisone. All cell lines were cultured at 37° C. under 5% CO2. The PDAC and CRC cell lines described above were treated with increasing concentrations of compound (IIa) or the commercially available PRMT5 inhibitor EPZ015666 [drawing 12] and quantified for cell viability using the MTT assay described above. […] A soft agar experiment was also performed to determine the effect of compound (IIa) on colony growth.

PANC1 cells = test: PANC1 subcutaneous xenograft tumor efficacy study in NSG mice; assay type: in vivo; conditions: 20 mg/kg intraperitoneally 3×/week, vs vehicle control, n=4
Experimental: NSG (NOD scid gamma) mice were obtained from the In Vivo Therapeutics Core at Indiana University School of Medicine. After acclimation for 7 days, NSG mice (6-8 weeks old) were xenografted with mycoplasma-free PANC1 or HT29 cells subcutaneously (1×10^7 PANC1 or 3×10^6 HT29 cells used per mouse in 0.2 ml of a 1:1 mix of phosphate-buffered saline and MATRIGEL™) (BD Biosciences, San Jose, CA). Mice were randomized when tumor volumes reached about 100 mm^3. Mice were treated with either vehicle control or 20 mg/kg of compound (Ia) (drug stock dissolved in 1:1 CREMOPHOR™:ethanol solution) intraperitoneally 3 times per week. Tumor volumes and body weights were measured twice a week. The study was performed in accordance with the guidelines and standards of the Institutional Animal Care and Use Committee (IACUC). […] NSG (NOD scid gamma) mice were obtained from the In Vivo Therapeutics Core at Indiana University School of Medicine. After acclimation for 7 days, NSG mice (6-8 weeks old) were xenografted with mycoplasma-free PANC1 or HT29 cells subcutaneously (1×10^7 PANC1 or 3×10^6 HT29 cells used per mouse in 0.2 ml of a 1:1 mix of phosphate-buffered saline and MATRIGEL™) (BD Biosciences, San Jose, CA). Mice were randomized when tumor volumes reached about 100 mm^3. […] Tumor volumes and body weights were measured twice a week. […]

PRMT5 = target: T1, PRMT5 (Homo sapiens, UniProt O14744); test: AlphaLISA PRMT5 methylation assay (biotin-histone H4R3, SAM); assay type: biochemical; conditions: PRMT5 methylation of histone H4R3, in vitro; read-out: IC50 using AlphaLISA
T1 construct: Flag; made in house; host or cells: 293 cells
Experimental: FIG. 1 is a schematic illustration of the AlphaLISA technique for the identification of small-molecule PRMT5 inhibitors. Biotinylated substrate (histone H4) is incubated with PRMT5 and methyl donor, S-adenosyl-1-methionine (SAM). PRMT5 symmetrically dimethylates the third arginine (R3) on biotin-H4 to form biotin-H4R3me2. This product is recognized by Acceptor beads specific for this methylation site. Donor beads have a streptavidin tag and bind to biotin-H4. Interaction between the Acceptor and Donor beads emits a chemiluminescent signal, which is detected by an ENVISION™ Reader (PerkinElmer, Waltham, MA). The methylation activity of PRMT5 is proportional to the intensity of this signal.
In order to identify PRMT5 inhibitors, the AlphaLISA technique (PerkinElmer, Waltham, MA) was adapted to an assay that could precisely quantify PRMT5 dimethylation of its substrate in a 384-well HTS platform (FIG. 1). The AlphaLISA high-throughput screen comprises incubating a biotinylated substrate (e.g., histone H4), PRMT5, and a methyl donor (e.g., S-adenosyl-1-methionine (SAM)); PRMT5 dimethylates the biotinylated substrate and the dimethylated biotinylated substrate is recognized by Acceptor beads specific for the methylation site. Donor beads comprising a tag (e.g., streptavadin) bind to the biotinylated substrate, and interaction between the Acceptor beads and Donor beads emits a signal (e.g., chemiluminescent signal), which can be detected. The methylation activity of PRMT5 is proportional to the intensity of the signal.
In one embodiment of the method used to identify the compounds disclosed herein, PRMT5 enzyme was purified with anti-Flag-M2 beads (Sigma-Aldrich, St. Louis, MO) from 293 cells overexpressing the Flag-PRMT5 protein (Wei et al., Proc Natl Acad Sci USA, 2013; 110: 13516-13521). The enzyme prep was diluted at 1:10 in assay buffer (30 mM Tris, pH 8.0, 1 mM DTT, 0.01% BSA, 0.01% Tween-20) before use. […] The plates were read using an ENVISION™ Reader (PerkinElmer, Waltham, MA).

T1 sequence (O14744 whole entry): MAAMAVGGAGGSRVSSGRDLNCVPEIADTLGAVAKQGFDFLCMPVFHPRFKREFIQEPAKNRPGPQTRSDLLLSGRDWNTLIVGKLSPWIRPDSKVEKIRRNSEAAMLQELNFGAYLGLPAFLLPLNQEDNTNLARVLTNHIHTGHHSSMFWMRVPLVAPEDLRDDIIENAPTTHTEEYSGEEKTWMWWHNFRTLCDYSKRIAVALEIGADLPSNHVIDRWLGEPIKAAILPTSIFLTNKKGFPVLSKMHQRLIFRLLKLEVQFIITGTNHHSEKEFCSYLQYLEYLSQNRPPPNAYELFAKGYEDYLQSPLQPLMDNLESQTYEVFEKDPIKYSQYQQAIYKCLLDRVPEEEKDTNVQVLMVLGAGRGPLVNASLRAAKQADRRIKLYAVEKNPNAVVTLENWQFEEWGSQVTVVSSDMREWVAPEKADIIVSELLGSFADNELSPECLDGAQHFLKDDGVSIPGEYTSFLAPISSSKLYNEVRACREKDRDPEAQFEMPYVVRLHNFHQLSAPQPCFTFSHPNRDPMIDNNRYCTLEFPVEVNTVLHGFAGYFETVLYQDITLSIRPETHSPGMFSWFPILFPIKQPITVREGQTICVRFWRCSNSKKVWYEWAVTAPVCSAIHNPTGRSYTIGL
T1 sequence (Q9BQA1 whole entry partner): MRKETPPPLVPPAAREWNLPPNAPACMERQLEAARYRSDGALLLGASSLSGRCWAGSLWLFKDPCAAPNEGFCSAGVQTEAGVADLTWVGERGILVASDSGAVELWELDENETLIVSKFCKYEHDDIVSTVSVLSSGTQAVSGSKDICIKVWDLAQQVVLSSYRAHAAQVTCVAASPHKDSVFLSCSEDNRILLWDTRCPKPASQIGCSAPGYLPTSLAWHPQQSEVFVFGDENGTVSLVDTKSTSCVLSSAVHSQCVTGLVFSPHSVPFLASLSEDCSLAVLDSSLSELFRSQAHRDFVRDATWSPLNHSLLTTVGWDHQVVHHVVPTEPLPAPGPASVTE

Question: For `Cc1ccc(Nc2nc(NCCN(C)C)nc3c2cnn3-c2ccccc2)cc1C` [compound (IIa)], which “cell viability in CRC cells (HT29, HCT116, DLD1), MTT” value ([1]; increasing concentrations) is on record?
Answer: decreased significantly

Question: What about the IC50 ([1]; range over HT29, HCT116 and DLD1) of the same compound?
Answer: 10 to 11 µM

Question: And the “tumor growth (tumor volume), PANC1 xenograft” value (PANC1 cells)?
Answer: significant tumor inhibition effect; also recorded: inhibition of tumor growth

Question: And the IC50 (PRMT5)?
Answer: ~7.5 µM

From patent publication US12516052B2, “Methyltransferase 5 (PRMT5) inhibitors and methods of treatment” (THE TRUSTEES OF INDIANA UNIVERSITY, priority 2016, dated 2026)
